What was measured:
[1] = LogP determination by HPLC (EEC-Directive 79/831 Annex V. A8); format: physicochemical; details: HPLC with acetonitrile/0.1% aqueous phosphoric acid gradient, gradient method
Venturia inaequalis = test: Venturia test (apple)/protective; format: in vivo; details: protective spray, assessment 10 days after inoculation, 0% = control, 100% = no attack
Text: Venturia Test (apple)/protective • Solvent: 24.5 parts by weight of acetone • 24.5 parts by weight of dimethylacetamide • Emulsifier: 1 part by weight of alkyl-aryl-polyglycolether One part by weight of active substance is mixed with the specified quantities of solvent and emulsifier and the concentrate diluted with water to the desired concentration to prepare a suitable active substance preparation. To test the protective efficiency, young plants are sprayed with the active substance preparation in the specified amount. After drying the spray coating, the plants are inoculated with an aqueous conodia suspension of the apple scab pathogen Venturia inaequalis and are then left for 1 day at about 20° C. and 100% relative humidity in an incubation cabinet. The plants are then placed in a greenhouse at about 21° C. and a relative humidity of about 90%. The assessment is made 10 days after the inoculation. In this situation 0% means an efficiency corresponding to that of the control whereas an efficiency of 100% means that no attack is observed.

chromatographic logP [1]	Compound	efficiency (Venturia inaequalis) [%]
2.43	CC(Oc1c(-c2ncncc2Cl)c(Cl)nc2ncnn12)C(F)(F)F (stereo not drawn) [Example 1, 5-chloro-6-(5-chloro-pyrimidin4-yl)-7-(2,2,2-trifluoro-isopropoxy)[1,2,4]triazolo[1,5-a]pyrimidine]	
2.05	COC(=O)C(C(=O)OC)c1ncccc1C(F)(F)F [Example 13, 2-[(3-trifluoromethyl)-pyridin-2-yl]-malonic acid dimethylester]	
2.46	Clc1ncsc1-c1c(Cl)nc2nc(C3CC3)nn2c1Cl [Example 9, 5,7-dichloro-2-cyclopropyl-6-(4-chloro-thiazol-5-yl)-[1,2,4]-triazolo[1,5-a]pyrimidine]	
0.1	Oc1nc2nc(C3CC3)nn2c(O)c1-c1scnc1Cl [Example 12, 2-cyclopropyl-6-(4-chloro-thiazol-5-yl)-[1,2,4]triazolo[1,5-a]pyrimidin-5,7-diol]	
-0.23	Oc1nc2ncnn2c(O)c1-c1ncncc1Cl [Example 11, 6-(5-chloro-4-pyrimidinyl)[1,2,4]triazolo[1,5-a]pyrimidin-5,7-diole]	
-0.23	Oc1nc2ncnn2c(O)c1-c1ncccc1C(F)(F)F [Example 10, 6-(3-trifluoromethyl-pyridin-2-yl)-[1,2,4]triazolo[1,5-a]pyrimidin-5,7-diole]	
1.33	COC(=O)C(C(=O)OC)c1ncncc1Cl [Example 14, 2-(5-chloro-pyrimidin-4-yl)-malonic acid dimethylester]	
1.43	Clc1cncnc1-c1c(Cl)nc2ncnn2c1Cl [Example 6, 5,7-dichloro-6-(5-chloro-4-pyrimidinyl)[1,2,4]triazolo[1,5-a]pyrimidine]	
1.97	FC(F)(F)c1cccnc1-c1c(Cl)nc2ncnn2c1Cl [Example 5, 5,7-dichloro-6-(3-trifluoromethyl-pyridin-2-yl)-[1,2,4]triazolo[1,5-a]pyrimidine]	
3.07	CC(C)C(C)Sc1c(-c2ncncc2Cl)c(Cl)nc2ncnn12 (stereo not drawn) [Example 2]	> 90
1.35	Clc1cncnc1Cl [Example 15, 4,5-dichloropyrimidine]	
